Experimental data published in ChEMBL document CHEMBL1137326, “Cyclic MrIA: a stable and potent cyclic conotoxin with a novel topological fold that targets the norepinephrine transporter” (J Med Chem, 2006).

Tests used:
[1] = molecular target: Sodium-dependent noradrenaline transporter (Homo sapiens, UniProt P23975); assay: Displacement of [3H]nisoxetine from human NET in COS7 cells; type: cell-based, COS-7
trypsin = assay: Stability against cleavage by trypsin after 24 hrs by enzymatic digestion assay; type: ADME; details: human, read-out: Activity

Sodium-dependent noradrenaline transporter, sequence (P23975 whole entry): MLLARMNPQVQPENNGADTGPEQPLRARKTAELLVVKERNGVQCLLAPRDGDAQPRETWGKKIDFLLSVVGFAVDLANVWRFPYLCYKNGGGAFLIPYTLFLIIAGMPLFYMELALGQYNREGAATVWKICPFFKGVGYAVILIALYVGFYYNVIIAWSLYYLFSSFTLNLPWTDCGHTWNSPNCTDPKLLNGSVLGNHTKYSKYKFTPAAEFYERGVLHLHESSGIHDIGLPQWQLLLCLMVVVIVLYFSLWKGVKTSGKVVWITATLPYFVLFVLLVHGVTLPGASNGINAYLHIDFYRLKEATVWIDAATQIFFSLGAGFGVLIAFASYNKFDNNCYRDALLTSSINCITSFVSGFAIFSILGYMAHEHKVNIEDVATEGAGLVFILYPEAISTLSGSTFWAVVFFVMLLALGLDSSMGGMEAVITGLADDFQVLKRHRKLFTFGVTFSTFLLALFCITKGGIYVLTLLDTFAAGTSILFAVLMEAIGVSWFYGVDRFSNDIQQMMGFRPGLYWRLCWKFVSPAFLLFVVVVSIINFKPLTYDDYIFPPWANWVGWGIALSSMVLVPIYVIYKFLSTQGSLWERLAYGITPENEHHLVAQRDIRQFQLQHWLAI

For CC(C)C[C@@H]1NC(=O)[C@H](CCCCN)NC(=O)[C@H](Cc2ccc(O)cc2)NC(=O)CNC(=O)C2CSSCC(NC1=O)C(=O)N[C@@H](Cc1c[nH]cn1)C(=O)N1C[C@H](O)C[C@H]1C(=O)N[C@H](C(=O)O)CSSC[C@H](NC(=O)[C@@H](NC(=O)CNC(=O)[C@@H](N)CC(N)=O)C(C)C)C(=O)N2 (some centres not stated), the EC50 [1] was 1820 nM and the remaining at 24 h (trypsin) was less than 55%.
